According to patent publication US8158623B2, “Heptacyclic compounds and the pharmaceutical uses thereof for preventing and treating diabetes and metabolic syndrome” (Shanghai Institute of Materia Medica Chinese Academy of …, priority 2007, dated 2012):

What was measured:
ob/ob mice [1] = assay: Effect of F7 on glucose and lipid metabolic disorder, serum biochemical indicators; assay type: in vivo; conditions: oral 50 mg/kg once daily for 3 weeks
Description: Genetic spontaneous diabetes ob/ob mice were purchased from Jackson (USA), and maintained in a SPF facility (temperature: 22-24° C., humidity: 45-80%, illumination: 150-300 Lx, 12/12-hour light/dark cycle). Fasting blood glucose was determined daily for 3 days continuously when the mice were 7 weeks old. The mice were grouped into the treatment group and the control group (8 animals per group) according to the results determined. The two groups were administered orally with compound F7 (50 mg/kg) and a solution of 0.1% Tween 80 respectively, once daily for 3 weeks. Another group of C57 mice was used as normal control. At the end of administration, blood samples were collected in each group, the serum was separated and serum biochemical indicators were detected.

ob/ob mice [2] = assay: Effect of F7 on liver weight, liver triglyceride, ALT and AST; assay type: in vivo; conditions: oral 50 mg/kg once daily for 3 weeks
Description: Genetic spontaneous diabetes ob/ob mice were purchased from Jackson (USA), and maintained in a SPF facility (temperature: 22-24° C., humidity: 45-80%, illumination: 150-300 Lx, 12/12-hour light/dark cycle). When the mice were 7 weeks old, the ob/ob mice were grouped into the treatment group and the control group (9 animals per group) according to the fasting blood glucose. The two groups were administered orally with compound F7 (50 mg/kg) and a solution of 0.1% Tween 80 respectively, once daily for 3 weeks. After 3 weeks, the animals were sacrificed and the liver was excised and weighed.
The triglyceride level in the liver was measured.

[3] = system: Acetyl CoA Carboxylase (ACC); assay: Phosphorylation of ACC in HepG2 cell (Western blot); assay type: cell-based, Human; conditions: HepG2, 50 uM, 5 minutes, P<0.01 or P<0.05
Description: Human hepatoma carcinoma cell strain (HepG2, purchased from the cell bank of Shanghai Institute of Cell Biology of Chinese Academy) was used. The Human hepatoma carcinoma cells were passaged by 0.1% pancreatin/0.02% EDTA digestion, and cultured in a incubator at 37° C. using MEM culture medium containing 10% FBS, under 5% CO2/95%.
HepG2 cells were cultured in 6-well plates for 48 hours until 70%-80% confluence. Serum starvation was started by changing medium with MEM containing 0.5% BSA. After starvation for 6 hours, cells were treated with the compounds (final concentration of 50 uM, containing 0.25% DMSO) for 5 minutes. The culture medium was discarded, and cells were harvested and washed for twice with pre-cooled PBS. The washing liquid was discarded, and any residual PBS was blotted dry. DMSO without heptacyclic compounds was used as control.
Extraction of total cellular protein: 150 μl/well homogenizing buffer (137 mM NaCl, 2.7 mM KCl, 1 mM MgCl2, 0.5 mM Na3VO4, 1% Triton X-100, 10% Glycerol, 20 mM Tris-HCl pH 7.8, 1 ug/ml Leupeptin, 0.2 mM PMSF, 10 mM NaF, 1 ug/ml Aprotinin, 1 mM EDTA, 1 mM DTT, 5 mM Sodium pyrophosphate, 1 mM Benzamidine) was added. Cells were collected into a 1.5 ml centrifuge tube using cell scraper. Cells were homogenized using sonicator (5 W of power) for 2 times (3 seconds per time), and shaken on a shaker for 1 hour. Supernatant (i.e., total cellular protein) was collected by centrifuging at 14000 rpm for 15 min at 4° C., and stored at −70° C. until use. After the protein concentration was determined by Bradford method, the supernatant was formulated as the loading sample with final concentration of 0.6 mg/ml. The whole preparation process was performed at 4° C.
Protein Electrophoresis: After being treated at 95° C. for 5 min, the loading sample was loaded (15 μg protein/lane). The protein was separated on 7.5% SDS-acrylamide gel for 1-2 hours under the voltage of 80-120 V.
Electrotransferring the protein and blocking the membrane: After electrophoresis was finished, the protein was transferred to PVDF membrane using semi-dry transferring slot based on 0.8 mA/cm^2 membrane area under the electric current of 80 mA for 2 hours. After that, the membrane was shaken for 2 hours with 7.5% skim milk/TTBS to block the membrane.
Antigen-antibody reaction: After the blocking process was finished, the membrane was incubated with primary antibody (antibody against phosphorylated ACC (P-ACC) and antibody against phosphorylated AMPK (P-AMPK), all purchased from Cell signaling (USA), with the working concentration of 1:1000) overnight at 4° C. The membrane was removed, and the primary antibody was recovered. The membrane was washed 5 times, each for 10 min in TTBS. The membrane was shaken for 2 hours with the secondary antibody (horseradish peroxidase-conjugated goat-anti-rabbit IgG antibody, purchased from Bio-rad (USA), with the working concentration of 1:5000) at room temperature. The secondary antibody was discarded. The membrane was washed 5 times, each for 10 min in TTBS in order to remove the unbound secondary antibody.
ECL exposure and development: Luminescent agents, ECL 1, 2, were mixed homogeneously, and incubated with the membrane for 3-5 min. The membrane was removed, wrapped in preservative film, and transferred into dark room for exposure. After exposure with X-film, the film was developed, washed, recorded and conserved.
Semi-quantitative analysis was performed through optical density scan using computer image analysis system. Grey level of the protein expression was calculated. The target grey level was divided by the grey level of internal standard, and a histogram was plotted, taking the normal group as 1 unit.

ob/ob mice [4] = assay: Fasting blood glucose in ob/ob mice, several heptacyclic compounds, 8 days; assay type: in vivo
Description: Genetic spontaneous diabetes ob/ob mice were purchased from Jackson (USA), and maintained in a SPF facility (temperature: 22-24° C., humidity: 45-80%, illumination: 150-300 Lx, 12/12-hour light/dark cycle). Fasting blood glucose was determined for 3 days continuously when the mice were 7 weeks old. The mice were grouped into the treatment group and the control group (6 animals per group) according to the results determined. The treatment groups were administered orally with compound E9, G0 and F7 (psoromic acid) (100 mg/kg), and the control group was administered orally with a solution of 0.1% Tween 80 (blank control), once daily for 8 days. Fasting blood glucose in mice was determined at the end of experiment.

## COc1cc(C(=O)O)c2c(c1C)OC(=O)c1c(C)cc(O)c(C=O)c1O2 [Compound F7, 4-Formyl-3-hydroxy-8-methoxy-1,9-dimethyl-11-oxo-11H-dibenzo[b,e][1,4]dioxepine-6-carboxylic acid]
ob/ob mice [1]
  CHOL (total cholesterol), serum: 6.0 ± 0.8 mmol/L
  FRU (fructosamine), serum: 225.0 ± 40.4 µmol/L
  NFFA (unsaturated free fatty acid), serum: 1.15 ± 0.17 mmol/L
  TG (triglycerides), serum: 72.1 ± 11.1 mg/dL
  UA (uric acid), serum: 316 ± 109 µM
ob/ob mice [2]
  Liver TG: 106.9 ± 35.6 µmol/g
  Liver Weight: 2.67 ± 0.57 g
  Weight of other organs or its ratio to body weight: no effect
ob/ob mice [2]; serum
  ALT: 161.5 ± 28.4 U/L
  AST: 197.3 ± 24.6 U/L
[3]
  Level of phosphorylation for ACC protein versus DMSO control: improved significantly
ob/ob mice [4]; before administration
  Fasting Blood Glucose: 11.94 ± 1.50 mM
ob/ob mice [4]; dosed continuously for 8 days, P<0.05
  Fasting blood glucose change in words: reduced statistically significant
ob/ob mice [4]; oral 100 mg/kg once daily, after 8 days treatment
  Fasting Blood Glucose: 8.12 ± 1.04 mM
